From patent publication US7973043B2, “Combination therapy for depression, prevention of suicide, and various medical and psychiatric conditions” (priority 2002, dated 2011)

Assays:
[1] = combined data from many studies; cited from earlier work
[2] = cited from earlier work; for annual risk of TD as fraction of the risk associated with haloperidol: relative to haloperidol
D2 receptor = D2 receptor (Homo sapiens, UniProt P14416); details: relative to risperidone and olanzapine; cited from earlier work
[3] = before the X-ray changes; cited from earlier work
[4] = antipsychotic alone; cited from earlier work

Chain of D2 receptor (P14416 whole entry): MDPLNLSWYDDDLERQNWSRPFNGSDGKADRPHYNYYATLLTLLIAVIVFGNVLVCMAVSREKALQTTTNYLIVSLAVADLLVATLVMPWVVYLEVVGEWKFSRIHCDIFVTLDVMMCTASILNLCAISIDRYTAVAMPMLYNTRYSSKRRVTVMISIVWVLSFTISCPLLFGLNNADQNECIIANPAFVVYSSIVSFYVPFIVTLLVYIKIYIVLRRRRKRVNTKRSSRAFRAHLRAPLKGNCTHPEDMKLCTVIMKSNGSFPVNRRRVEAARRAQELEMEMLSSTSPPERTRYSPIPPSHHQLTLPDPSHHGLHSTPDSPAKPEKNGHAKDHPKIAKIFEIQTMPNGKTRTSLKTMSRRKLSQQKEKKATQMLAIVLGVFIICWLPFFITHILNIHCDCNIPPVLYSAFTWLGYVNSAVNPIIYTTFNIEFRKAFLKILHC

SMILES: O=C1Cc2cc(CCN3CCN(c4nsc5ccccc45)CC3)c(Cl)cc2N1 [ziprasidone]
- relative risk of drug-induced acute EPS in declining order [1]: risperidone >ziprasidone >=olanzapine >quetiapine

SMILES: Cc1cc2c(s1)Nc1ccccc1N=C2N1CCN(C)CC1 [olanzapine]
- relative risk of drug-induced acute EPS in declining order [1]: risperidone >ziprasidone >=olanzapine >quetiapine
- One year risk of TD ([2]; all patients): 0.52%
- annual risk of TD as fraction of the risk associated with haloperidol [2]: about 1/12

SMILES: OCCOCCN1CCN(C2=Nc3ccccc3Sc3ccccc32)CC1 [quetiapine]
- adverse effect (hypothetical cases): lightheadedness
- time until suicidality vanishes (second hypothetical case, MDD, quetiapine 50 mg added to paroxetine 20 mg q d): 24 h
- relative risk of drug-induced acute EPS in declining order [1]: risperidone >ziprasidone >=olanzapine >quetiapine
- dissociation from the dopamine receptor (D2 receptor): fast dissociation

SMILES: N[C@@H]1CONC1=O [DCS]
- antidepressant effect [3]: prompt antidepressant effects

SMILES: Cc1nc2n(c(=O)c1CCN1CCC(c3noc4cc(F)ccc34)CC1)CCCC2 [risperidone]
- activity in the chronic mild stress (CMS) model [4]: ineffective
- annual risk of TD as fraction of the risk associated with haloperidol [2]: ⅙
